Experimental findings from US20230096517A1, “GLUTARIMIDE SKELETON-BASED COMPOUNDS AND APPLICATION THEREOF” (SHANGHAITECH UNIVERSITY, priority 2020, published 2023) are described below.

The test system of the assay is MM.1S cells. As to the kind of experiment: Proliferation inhibition (IC50) in multiple myeloma cells, cell viability with WST/CCK-8 reagent.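 Note: MM.1S B-lymphoblast cells at 15,000 per well in 100 µL serum-containing RPMI1640, experiment run more than three times.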 Conditions: Homo sapiens, MM1.S, 72 h, read-out: IC50 (half inhibitory concentration). (In general: Tetrazolium dyes change colour on reduction, which living cells bring about.)
Description: Multiple myeloma cell line: MM.1S (B lymphoblast), purchased from ATCC (American Type Culture Collection). Culture medium was RPMI1640 supplemented with 10% FBS and 1% Penicillin-Streptomycin. The cells used were identified as correct cells by STR cells and negative for mycoplasma by routine inspections.
IC50 values of the compounds of the present disclosure were measured using Cell Titer Blue, Cell Titer GLO, or WST reagent from Promega Company. Assay details are as follows: Cells were seeded in 100 μL RPMI1640 complete medium containing serum at a density of 15,000 cells/well.
The experiment was repeated more than three times.
Regarding `O=C1CCC(N2C(=O)c3cccc(NCCCCCCCNC45CC6CC(CC4C6)C5)c3C2=O)C(=O)N1` (stereo not shown) [SIAIS1242041, 2-(2,6-dioxopiperidin-3-yl)-4-((7-((hexahydro-2,5-methanopentalen-3a(1H)-yl)amino)heptyl)amino)isoindoline-1,3-dione], the IC50 amounted to 0.076 nM. Next, `O=C1CCC(N2Cc3c(OCCCCCCCNC45CC6CC(CC4C6)C5)cccc3C2=O)C(=O)N1` (stereo not shown) [SIAIS1242043, 3-(4-((7-((hexahydro-2,5-methanopentalen-3a(1H)-yl)amino)heptyl)oxy)-1-oxoisoindolin-2-yl)piperidine-2,6-dione]: 0.069 nM; `O=C1CCC(N2Cc3c(C#CCCCCCCNC45CC6CC(CC4C6)C5)cccc3C2=O)C(=O)N1` (stereo not shown) [SIAIS1242057, 3-(4-(8-((hexahydro-2,5-methanopentalen-3a(1H)-yl)amino)oct-1-yn-1-yl)-1-oxoisoindolin-2-yl)piperidine-2,6-dione]: 0.267 nM.

`O=C1CCC(N2Cc3c(NCc4ccc(CCNC56CC7CC(CC5C7)C6)cc4)cccc3C2=O)C(=O)N1` (stereo not shown) [SIAIS1242061, 3-(4-((4-(2-((hexahydro-2,5-methanopentalen-3a(1H)-yl)amino)ethyl)benzyl)amino)-1-oxoisoindolin-2-yl)piperidine-2,6-dione]: the IC50 was determined as 0.107 nM. Next, `O=C1CCC(N2C(=O)c3ccc(NCCCCCCNC45CC6CC(CC(C6)C4)C5)cc3C2=O)C(=O)N1` (stereo not shown) [SIAIS1242067, 5-((6-((adamantan-1-yl)amino)hexyl)amino)-2-(2,6-dioxopiperidin-3-yl)isoindoline-1,3-dione]: 17.7 nM; `O=C1CCC(N2C(=O)c3ccc(NCCCCCNC45CC6CC(CC(C6)C4)C5)cc3C2=O)C(=O)N1` (stereo not shown) [SIAIS1242069, 5-((5-((adamantan-1-yl)amino)pentyl)amino)-2-(2,6-dioxopiperidin-3-yl)isoindoline-1,3-dione]: 2.27 nM. `O=C1CCC(N2Cc3c(NCCCCCCCNC45CC6CC(CC4C6)C5)cccc3C2=O)C(=O)N1` (stereo not shown) [SIAIS1242071, 3-(4-((7-((hexahydro-2,5-methanopentalen-3a(1H)-yl)amino)heptyl)amino)-1-oxoisoindolin-2-yl)piperidine-2,6-dione]: the IC50 was 2.46 nM. To `O=C1CCC(N2Cc3c(OCCCCCCC(=O)NC45CC6CC(CC(C6)C4)C5)cccc3C2=O)C(=O)N1` (stereo not shown) [SIAIS1242075, N-(adamantan-1-yl)-7-((2-(2,6-dioxopiperidin-3-yl)-1-oxoisoindolin-4-yl)oxy)heptanamide] belongs 0.877 nM; to `O=C1CCC(N2C(=O)c3cccc(NCCCCCCC(=O)NC45CC6CC(CC(C6)C4)C5)c3C2=O)C(=O)N1` (stereo not shown) [SIAIS1242077, N-(adamantan-1-yl)-7-((2-(2,6-dioxopiperidin-3-yl)-1,3-dioxoisoindolin-4-yl)amino)heptanamide], 0.241 nM.

`Nc1cccc2c1C(=O)N(C1CCC(=O)NC1=O)C2=O` (stereo not shown) [pomalidomide, reference compound]: the IC50 turned out to be 9.4 ± 1.3 nM.
